From patent US20220402862A1 (Intellia Therapeutics, Inc., priority 2019, published 2022)

Legend:
[1] = test system: mouse B2M gene; test: In vivo editing in mouse spleen, G650 sgRNA, % indel by NGS; design: species or system CD-1 female mice; conditions: experiment 108
Protocol: (§1) In brief, to quantitatively determine the efficiency of editing at the target location in the genome, genomic DNA was isolated and deep sequencing was utilized to identify the presence of insertions and deletions introduced by gene editing.
(§2) PCR primers were designed around the target site (e.g., within B2M), and the genomic area of interest was amplified. Additional PCR was performed according to the manufacturer's protocols (Illumina) to add the necessary chemistry for sequencing. The amplicons were sequenced on an Illumina MiSeq instrument. The reads were aligned to the mouse or rat reference genome (e.g., GRCm38) after eliminating those having low quality scores. The resulting files containing the reads were mapped to the reference genome (BAM files), where reads that overlapped the target region of interest were selected and the number of wild type reads versus the number of reads which contain an insertion, substitution, or deletion was calculated.
(§3) The editing percentage (e.g., the “indel efficiency” or “percent indels”) was defined as the total number of sequence reads with insertions or deletions over the total number of sequence reads, including wild type.
The in vivo delivery to liver, spleen, and bone marrow was assessed by measuring editing efficiency for materials delivered with formulations including various amine lipid compounds. […] LNPs were formulated at a 1:2 w/w ratio of sgRNA to Cas9 mRNA and at an N/P ratio of about 6. Molar concentrations of lipids in the lipid component of the LNPs are used at mol % amine lipid/DSPC/cholesterol/PEG-2k-DMG of 50/9/38/3. The final LNPs compositions were characterized and analyzed as described in Example 120. Analysis of average particle size, polydispersity (PDI), total RNA content and encapsulation efficiency of RNA are shown in Table 8.
CD-1 female mice were dosed i.v. at 0.1, 0.3, or 1 mg/kg and assessed for editing in liver, spleen, and bone marrow.

[2] = test system: mouse B2M gene; test: In vivo editing in mouse bone marrow, G650 sgRNA, % indel by NGS; design: species or system CD-1 female mice; conditions: G650, i.v. dose 1 mg/kg, experiment 108
Protocol: [Worded in the source for another target; this target is reported under the same test.] as §1, §2, §3
The in vivo delivery to liver, spleen, and bone marrow was assessed by measuring editing efficiency for materials delivered with formulations including various amine lipid compounds. […]

Compound	% Editing in Spleen ([1]; G650, i.v. dose 0.1 mg/kg) [%]	% Editing in Spleen ([1]; G650, i.v. dose 0.3 mg/kg) [%]	% Editing in Spleen ([1]; G650, i.v. dose 1 mg/kg) [%]	% Editing in BM [2] [%]
CCCCC/C=C\C/C=C\CCCCCCCC(=O)OCC(COC(=O)CCC(OCCCCCCCC)OCCCCCCCC)COC(=O)OCCCN(CC)CC (centres unmarked) [Compound 1, 3-((4,4-bis(octyloxy)butanoyl)oxy)-2-((((3-(diethylamino)propoxy)carbonyl)oxy)methyl)propyl (9Z,12Z)-octadeca-9,12-dienoate, reference compound]	0.62	2.2	6.26	2.66
CCCCC/C=C\C/C=C\CCCCCCCC(=O)OCC(COC(=O)CC12CC3CC(CC(C3)C1)C2)COC(=O)OCCCN(CC)CC (centres unmarked) [Compound 107, 3-(2-((3 r,5 r, 7r)-adamantan-1-yl)acetoxy)-2-((((3-(diethylamino)propoxy)carbonyl)oxy)methyl)propyl (9Z,12Z)-octadeca-9,12-dienoate]	0.08	0.12	0.3	0.32
